Read-outs that look alike come from different tables or passages of the source. Ends that are not written are not given here. Peptide text beside a SMILES is read from it.
Columns and labels:
Solubility in water = assay type: physicochemical
Text: To increase solubility, its sequence was elongated at the N- and C-terminals by adding hydrophilic amino acids from the protein sequence. […] These modifications were introduced to prevent the oxidation of methionine and cysteine.

PD-L1 protein = details: Table S6, supplement reference list, read-out: Affinity (KD), cited from earlier work
Text: Supplement mmc1.docx, table 8: Table S6. […] D - amino acids are marked with a lowercase letter. NB - no binding; ND - no data; JD - no name given by the authors. | column: Affinity (KD) [µM]

PD-1 protein = details: Table S5, supplement reference list, read-out: Affinity (KD), cited from earlier work
[1] = target: programmed cell death 1 (PD-1) (human, UniProt Q15116 25-170); experiment: SPR; Biacore T200; biotin-(Gly)5-peptides immobilised on an SA sensor chip (~800 RU, L1 ~500 RU); PD-1 injected at 0.31-10 µM (two-fold dilutions); PBS-P running buffer, 30 µl/min, 25°C; 1:1 binding model, at least three titrations; details: both partners purified
Chain of programmed cell death 1 (PD-1) (Q15116 25-170): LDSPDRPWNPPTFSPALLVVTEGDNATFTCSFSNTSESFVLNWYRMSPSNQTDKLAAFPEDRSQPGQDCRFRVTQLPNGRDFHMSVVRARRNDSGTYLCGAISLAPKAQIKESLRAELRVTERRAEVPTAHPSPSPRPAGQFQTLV

## CCCC[C@H](NC(=O)[C@H](CCC(=O)O)NC(=O)[C@H](Cc1c[nH]c2ccccc12)NC(=O)[C@H](Cc1ccc(O)cc1)NC(=O)[C@@H](NC(=O)[C@@H](NC(=O)[C@H](CC(C)C)NC(=O)[C@H](C)NC(C)=O)[C@@H](C)CC)C(C)C)C(=O)N[C@@H](CCC(=O)O)C(=O)N[C@@H](CC(=O)O)C(=O)N[C@@H](CCCCN)C(=O)N[C@@H](CC(N)=O)C(=O)N[C@H](C(=O)N[C@H](C(=O)N[C@@H](CCC(N)=O)C(=O)N[C@@H](Cc1ccccc1)C(=O)N[C@H](C(N)=O)C(C)C)[C@@H](C)CC)[C@@H](C)CC [Peptide L2] (HELM PEPTIDE1{[ac].A.L.I.V.Y.W.E.[Nle].E.D.K.N.I.I.Q.F.V.[am]}$$$$V2.0)
Solubility in water
  Solubility in water: poorly soluble in water

## CLQKTPKQC [PD-L1Pep-1]
PD-L1 protein; ref [36]
  Kd: 0.373 µM

## CRAMISYGGADYK-(N-Me-Arg)-IC [MN1.4]
PD-1 protein; ref [21]
  Kd: 2 µM

## CVRARTR [PD-L1Pep-2]
PD-L1 protein; ref [36]
  Kd: 0.281 µM

## CVYRCMISYGGADYKRITC (disulfide (positions not given here)) [ΔDS-II [C110–C128]]
PD-1 protein; ref [8]
  Kd: 11.6 µM

## CYRCMISYGGADYKRIC (disulfide (positions not given here))
PD-1 protein; ref [8]
  Kd: 17.5 µM

## DWFKAFYDKINETYNK [Peptide 4F-32]
PD-L1 protein; ref [47]
  Kd: 0.017 µM

## DWIKANYDETAEYNKEAK [Peptide 4F-30]
PD-L1 protein; ref [47]
  Kd: 419 µM

## DYHDPSLPTLRK [CLP004]
PD-1 protein; ref [10]
  Kd: 0.544 µM

## FNWDYSLEELREKAKYK [Ar5Y_2]
PD-1 protein; ref [3]
  Kd: 3.14 µM

## FNWDYSWKSERLKEAYDL [Ar5Y_1]
PD-1 protein; ref [3]
  Kd: 3.39 µM

## FRWWR [WANG-004]
PD-1 protein; NB = no binding, ref [6]
  Kd: 1.6 µM

## FSGTVTTAGLLF [P-F4]
PD-1 protein; ref [17]
  Kd: 0.119 µM

## GDWFKAYYDKVAEG [Peptide 4F-8]
PD-L1 protein; ref [47]
  Kd: 412 µM

## GIDYEERWK [Ar4_1]
PD-1 protein; ref [3]
  Kd: 28.3 µM

## GNADYNSQRAQLYNQ [Ar5Y_4 W3A]
PD-1 protein; ref [3]
  Kd: 8.08 µM

## GNWAYNSQRAQLYNQ [Ar5Y_4 D4A]
PD-1 protein; ref [3]
  Kd: 18.9 µM

## GNWDANSQRAQLYNQ [Ar5Y_4 Y5A]
PD-1 protein; ref [3]
  Kd: 20.2 µM

## GNWDYNSQAAQLYNQ [Ar5Y_4 R9A]
PD-1 protein; ref [3]
  Kd: 21.2 µM

## GNWDYNSQRAQLANQ [Ar5Y_4 Y13A]
PD-1 protein; ref [3]
  Kd: 10.2 µM

## GNWDYNSQRAQLYNQ [Ar5Y_4]
PD-1 protein; ref [3]
  Kd: 1.38 µM

## GQSEHHMRVYSF [OPBP-1]
PD-L1 protein; ref [38]
  Kd: 0.667 µM

## GTRLKPLIICVQWPGL [PD-L1ip3]
PD-L1 protein; ref [40]
  Kd: 33 µM

## HYPFRPHANQAS [CLP001]
PD-1 protein; ref [10]
  Kd: 0.534 µM

## KRWWR [WANG-003]
PD-1 protein; NB = no binding, ref [6]
  Kd: 3.3 µM

## KSKAVNRVSQESEM [Pep6]
PD-1 protein; ref [12]
  Kd: 66.4 µM

## LDYDGRLSQ [Ar4_2]
PD-1 protein; ref [3]
  Kd: 83.9 µM

## LDYGDKREGQMAE [Ar5M_1]
PD-1 protein; ref [3]
  Kd: 21.6 µM

## LDYVNRRKMYQ [Ar5M_2]
PD-1 protein; ref [3]
  Kd: 3.32 µM

## LERHDFGDGRARYEE [Pep10]
PD-1 protein; ref [12]
  Kd: 39 µM

## LETWFGKEILVKT [Pep1]
PD-1 protein; ref [12]
  Kd: 140 µM

## LEYWSSGSTTMYGL [Pep9]
PD-1 protein; ref [12]
  Kd: 36.4 µM

## QYRCNGTSSKGSDQAIITLRV [Pep14]
PD-1 protein; ref [12]
  Kd: 10.9 µM

## RCMICYGGADYKRI [Peptide P1.1]
PD-1 protein; ref [11]
  Kd: 3.66 µM

## RCMISYpGADYKRI [Peptide P1.2]
PD-1 protein; ref [11]
  Kd: 83 µM

## RRQWFW [JD2]
PD-1 protein; ref [19]
  Kd: 4.38 µM

## RRWQWR [WANG-005]
PD-1 protein; NB = no binding, ref [6]
  Kd: 5.1 µM

## RRWWRR [JD1]
PD-1 protein; ref [19]
  Kd: 4.01 µM

## RTCITYpGADYCRI [Peptide P1.4]
PD-1 protein; ref [11]
  Kd: 474 µM

## RTMIWYAAAWYKRI [Peptide P2.2]
PD-1 protein; ref [11]
  Kd: 55.2 µM

## RTMIWYGpAWYKRI [Peptide P2.3]
PD-1 protein; ref [11]
  Kd: 129 µM

## RTMIWYpPAWYKRI [Peptide P2.1]
PD-1 protein; ref [11]
  Kd: 29.2 µM

## SGQQRTSADCWEDHGWGSGGSK [PBP]
PD-1 protein; ref [22]
  Kd: 17.4 µM

## SGQYASYHCWCWRDPGRSGGSK [TPP-1]
PD-L1 protein; ref [34]
  Kd: 0.095 µM

## SHFSASYDKYAEKF [Peptide 4F-16]
PD-L1 protein; ref [47]
  Kd: 49.4 µM

## SHHHRLSRLKEIANSPTQFWRMVARNTLGNGAKQSLNIEHARL [nABPD1]
PD-1 protein; ref [18]
  Kd: 0.0119 µM

## SRLKEIANSPTQFWRMVARNTLGNGAKQSLNIEHARL [nABP284]
PD-1 protein; ref [18]
  Kd: 11.8 µM

## TEKDYRHGNIRMKLAYDL [Ar5Y_3]
PD-1 protein; ref [3]
  Kd: 3.13 µM

## TFKVEDRYGQGQQILD [Pep4]
PD-1 protein; ref [12]
  Kd: 22.7 µM

## TSEVDNGVGKPQKHS [Pep3]
PD-1 protein; ref [12]
  Kd: 81.1 µM

## VFELRHSKRKDSRTVY [Pep2]
PD-1 protein; ref [12]
  Kd: 127 µM

## WDYD [Ar3_1]
PD-1 protein; ref [3]
  Kd: 22.3 µM

## WHFSYNWRWLPP [CLP003]
PD-1 protein; ref [10]
  Kd: 0.117 µM

## WHRSYYTWNLNT [CLP002]
PD-1 protein; ref [10]
  Kd: 0.366 µM

## [CKWYRPSEC] [Peptide C8]
PD-1 protein; ref [16]
  Kd: 0.64 µM

## [TMYLerRYpD] [PD-i3]
PD-1 protein; ref [13]
  Kd: 102 µM

B1: PD-L1(111-127), biotin-(Gly)5 form (peptide)
chain: VYRCMISYGGADYKRIT
HELM: PEPTIDE1{[O=C1N[C@H]2[C@H](CS[C@H]2CCCCC(=O)[*:2])N1].G.G.G.G.G.V.Y.R.[Abu].[Nle].I.S.Y.G.G.A.D.Y.K.R.I.T.[am]}$$$$V2.0
SMILES: CCCC[C@H](NC(=O)[C@H](CC)NC(=O)[C@H](CCCNC(=N)N)NC(=O)[C@H](Cc1ccc(O)cc1)NC(=O)[C@@H](NC(=O)CNC(=O)CNC(=O)CNC(=O)CNC(=O)CNC(=O)CCCC[C@@H]1SC[C@@H]2NC(=O)N[C@@H]21)C(C)C)C(=O)N[C@H](C(=O)N[C@@H](CO)C(=O)N[C@@H](Cc1ccc(O)cc1)C(=O)NCC(=O)NCC(=O)N[C@@H](C)C(=O)N[C@@H](CC(=O)O)C(=O)N[C@@H](Cc1ccc(O)cc1)C(=O)N[C@@H](CCCCN)C(=O)N[C@@H](CCCNC(=N)N)C(=O)N[C@H](C(=O)N[C@H](C(N)=O)[C@@H](C)O)[C@@H](C)CC)[C@@H](C)CC
[1]
  koff: 0.00179 s⁻¹
  kon: 10.9 M⁻¹ s⁻¹

B2: PD-L1(110-128)(V111C-T127C), biotin-(Gly)5 form (peptide)
chain: GCYRCMISYGGADYKRICV
HELM: PEPTIDE1{[O=C1N[C@H]2[C@H](CS[C@H]2CCCCC(=O)[*:2])N1].G.G.G.G.G.G.C.Y.R.[Abu].[Nle].I.S.Y.G.G.A.D.Y.K.R.I.C.V.[am]}$PEPTIDE1,PEPTIDE1,8:R3-24:R3$$$V2.0
SMILES: CCCC[C@@H]1NC(=O)[C@H](CC)NC(=O)[C@H](CCCNC(=N)N)NC(=O)[C@H](Cc2ccc(O)cc2)NC(=O)[C@@H](NC(=O)CNC(=O)CNC(=O)CNC(=O)CNC(=O)CNC(=O)CNC(=O)CCCC[C@@H]2SC[C@@H]3NC(=O)N[C@@H]32)CSSC[C@@H](C(=O)N[C@H](C(N)=O)C(C)C)NC(=O)[C@H]([C@@H](C)CC)NC(=O)[C@H](CCCNC(=N)N)NC(=O)[C@H](CCCCN)NC(=O)[C@H](Cc2ccc(O)cc2)NC(=O)[C@H](CC(=O)O)NC(=O)[C@H](C)NC(=O)CNC(=O)CNC(=O)[C@H](Cc2ccc(O)cc2)NC(=O)[C@H](CO)NC(=O)[C@H]([C@@H](C)CC)NC1=O
[1]
  koff: 0.00071 s⁻¹
  kon: 33.1 M⁻¹ s⁻¹

B3: PD-L1(113-126), biotin-(Gly)5 form (peptide)
chain: RCMISYGGADYKRI
HELM: PEPTIDE1{[O=C1N[C@H]2[C@H](CS[C@H]2CCCCC(=O)[*:2])N1].G.G.G.G.G.R.[Abu].[Nle].I.S.Y.G.G.A.D.Y.K.R.I.[am]}$$$$V2.0
SMILES: CCCC[C@H](NC(=O)[C@H](CC)NC(=O)[C@H](CCCNC(=N)N)NC(=O)CNC(=O)CNC(=O)CNC(=O)CNC(=O)CNC(=O)CCCC[C@@H]1SC[C@@H]2NC(=O)N[C@@H]21)C(=O)N[C@H](C(=O)N[C@@H](CO)C(=O)N[C@@H](Cc1ccc(O)cc1)C(=O)NCC(=O)NCC(=O)N[C@@H](C)C(=O)N[C@@H](CC(=O)O)C(=O)N[C@@H](Cc1ccc(O)cc1)C(=O)N[C@@H](CCCCN)C(=O)N[C@@H](CCCNC(=N)N)C(=O)N[C@H](C(N)=O)[C@@H](C)CC)[C@@H](C)CC
[1]
  koff: 0.000194 s⁻¹
  kon: 24.7 M⁻¹ s⁻¹
